Experimental data taken from US10173991B2, “Sulfone amide linked benzothiazole inhibitors of endothelial lipase” (BRISTOL-MYERS SQUIBB COMPANY, priority 2014, dated 2019).

molecular target: Endothelial lipase (EL) (Homo sapiens (Human), UniProt Q9Y5X9); assay: Endothelial lipase (EL) enzymatic assay with fluorescent substrate A10070 in DMPG vesicles; assay type: biochemical; settings: not given
Description: Endothelial lipase (EL) and hepatic lipase (HL) activities were measured using a fluorescent substrate, A10070, (Invitrogen, CA) doped into an artificial vesicle containing DMPG (Avanti Polar Lipids) as the excipient. Vesicles were prepared by combining 571 μL of 29 mM DMPG in a 1:1 mixture of MeOH and CHCl3 with 2000 μL of 1 mM A10070 in a 1:1 mixture of MeOH and CHCl3. The mixture was dried under nitrogen in multiple vials then resuspended in 20 mL total volume of 50 mM HEPES pH 8.0 buffer containing 50 mM NaCl and 0.2 mM EDTA. The sample was allowed to sit at room temperature for 15 min and then was sonicated 3×4 mins on ice with a Branson Sonicator using duty cycle 1. This preparation provides vesicles with a mole fraction of 0.11 for the FRET substrate.
The enzymatic assay was measured using 384-well white Optiplates. Each well contained 20 μL of assay buffer (50 mM HEPES pH 8.0, 50 mM NaCl and 1 mM CaCl2) and 0.25 μL of a DMSO solution containing a compound of interest. EL or HL (10 μL) was added and allowed to incubate with the compound for 30 min at 37° C. The source of EL was conditioned media obtained from HT-1080 cells that were transformed using RAGE technology (Athersys) to overexpress endogenous EL, and HL was partially purified from conditioned media obtained from COS cells overexpressing HL. The reaction was started by the addition of 10 μL of a 1:10 dilution of vesicles. The final total reaction volume was […]. The reaction rates were measured on a Gemini plate reader with an excitation wavelength of 490 nm and an emission wavelength of 530 nm. Readings were taken over a period of 60 minutes, and the slope between 300 and 900 secs of the readout was used to calculate the rate of the reaction.

Endothelial lipase (EL), sequence (Q9Y5X9 21-500): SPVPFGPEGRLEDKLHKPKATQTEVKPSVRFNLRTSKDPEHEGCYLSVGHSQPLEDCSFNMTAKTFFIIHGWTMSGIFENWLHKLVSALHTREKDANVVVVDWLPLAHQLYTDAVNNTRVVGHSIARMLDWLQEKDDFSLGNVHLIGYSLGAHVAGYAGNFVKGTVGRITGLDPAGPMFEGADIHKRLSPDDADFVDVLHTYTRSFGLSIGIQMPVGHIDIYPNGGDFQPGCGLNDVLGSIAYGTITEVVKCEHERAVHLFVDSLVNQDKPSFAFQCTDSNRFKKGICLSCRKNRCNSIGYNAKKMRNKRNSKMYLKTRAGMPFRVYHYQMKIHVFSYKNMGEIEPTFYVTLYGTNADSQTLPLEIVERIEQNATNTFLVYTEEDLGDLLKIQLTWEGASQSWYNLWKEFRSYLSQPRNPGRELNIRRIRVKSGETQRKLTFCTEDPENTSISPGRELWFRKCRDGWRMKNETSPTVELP

| SMILES | IC50 [nM] |
| --- | --- |
| O=C(CNC(=O)C(c1nc2cc(F)c(-c3ccc(NC(=O)OCc4ccccc4)cc3)cc2s1)S(=O)(=O)CC1CC1)NC1CC1 (stereo not drawn) [Example 51, benzyl N-{4-[2-({[(cyclopropyl-carbamoyl)methyl]carbamoyl} (cyclopropyl-methanesulfonyl)methyl)-5-fluoro-1,3-benzothiazol-6-yl]phenyl} carbamate] | 3 |
| CCCS(=O)(=O)C(C(=O)NCC(=O)NC1CC1)c1nc2cc(F)c(-c3ccc(NC(=O)OCc4ccccc4)cc3)cc2s1 (stereo not drawn) [Example 52, benzyl N-{4-[2-({[(cyclopropyl-carbamoyl)methyl]carbamoyl} (propane-1-sulfonyl)methyl)-5-fluoro-1,3-benzothiazol-6-yl]phenyl} carbamate] | 1 |
| CCCCS(=O)(=O)C(C(=O)NCC(=O)NC1CC1)c1nc2cc(F)c(-c3ccc(NC(=O)OCc4ccccc4)cc3)cc2s1 (stereo not drawn) [Example 53, benzyl N-(4-{2-[(butane-1-sulfonyl) ({[(cyclopropyl-carbamoyl)methyl]carbamoyl})methyl]-5-fluoro-1,3-benzothiazol-6-yl}phenyl) carbamate] | 2 |
| O=C(CNC(=O)C(c1nc2cc(F)c(-c3ccc(NC(=O)OCc4ccccc4)cc3)cc2s1)S(=O)(=O)CC1CCCCC1)NC1CC1 (stereo not drawn) [Example 54, benzyl N-(4-{2-[cyclohexyl-methanesulfonyl ({[(cyclopropyl-carbamoyl)methyl]carbamoyl})methyl]-5-fluoro-1,3-benzothiazol-6-yl}phenyl) carbamate] | 1 |
| O=C(CNC(=O)C(c1nc2ccc(-c3ccc(F)nc3)cc2s1)S(=O)(=O)CCC(F)(F)F)NC1CC1 (stereo not drawn) [Example 56, N-[(cyclopropyl-carbamoyl)methyl]-2-[6-(6-fluoropyridin-3-yl)-1,3-benzothiazol-2-yl]-2-(3,3,3-trifluoropropane-sulfonyl)acetamide] | 29 |
| CS(=O)(=O)C(C(=O)NCC(=O)NC1CC1)c1nc2ccc(-c3ccc(F)nc3)cc2s1 (stereo not drawn) [Example 57, N-[(cyclopropyl-carbamoyl)methyl]-2-[6-(6-fluoropyridin-3-yl)-1,3-benzothiazol-2-yl]-2-methanesulfonyl-acetamide] | 47 |
| C=CCS(=O)(=O)C(C(=O)NCC(=O)NC1CC1)c1nc2ccc(-c3ccc(F)nc3)cc2s1 (stereo not drawn) [Example 59, N-[(cyclopropyl-carbamoyl)methyl]-2-[6-(6-fluoropyridin-3-yl)-1,3-benzothiazol-2-yl]-2-(prop-2-ene-1-sulfonyl) acetamide] | 20 |
| COCCS(=O)(=O)C(C(=O)NCC(=O)NC1CC1)c1nc2cc(-c3cccnc3C(F)(F)F)ccc2s1 (stereo not drawn) [Example 61, N-[(cyclopropyl-carbamoyl)methyl]-2-(2-methoxyethane-sulfonyl)-2-{5-[2-(trifluoromethyl)pyridin-3-yl]-1,3-benzothiazol-2-yl}acetamide] | 5 |
| COCCS(=O)(=O)C(C(=O)NCC(=O)NC1CC1)c1nc2cc(-c3cncc(Cl)c3)ccc2s1 (stereo not drawn) [Example 62] | 5 |
| COCCS(=O)(=O)C(C(=O)NCC(=O)NC1CC1)c1nc2cc(-c3ccnc(C(F)(F)F)c3)ccc2s1 (stereo not drawn) [Example 63, N-[(cyclopropyl-carbamoyl)methyl]-2-(2-methoxyethane-sulfonyl)-2-{5-[2-(trifluoromethyl)pyridin-4-yl]-1,3-benzothiazol-2-yl}acetamide] | 5 |
| COCCS(=O)(=O)C(C(=O)NCC(=O)NC1CC1)c1nc2cc(-c3cncc(OC)c3)ccc2s1 (stereo not drawn) [Example 64, N-[(cyclopropyl-carbamoyl)methyl]-2-(2-methoxyethane-sulfonyl)-2-[5-(5-methoxypyridin-3-yl)-1,3-benzothiazol-2-yl]acetamide] | 11 |
| COCCS(=O)(=O)C(C(=O)NCC(=O)NC1CC1)c1nc2cc(-c3cnnc(C)c3)ccc2s1 (stereo not drawn) [Example 67, N-[(cyclopropyl-carbamoyl)methyl]-2-(2-methoxyethane-sulfonyl)-2-[5-(6-methylpyridazin-4-yl)-1,3-benzothiazol-2-yl]acetamide] | 16 |
| COCCS(=O)(=O)C(C(=O)NCC(=O)NC1CC1)c1nc2cc(-c3ccc(F)nc3F)ccc2s1 (stereo not drawn) [Example 68, N-[(cyclopropyl-carbamoyl)methyl]-2-[5-(2,6-difluoropyridin-3-yl)-1,3-benzothiazol-2-yl]-2-(2-methoxyethane-sulfonyl) acetamide] | 19 |
| COCCS(=O)(=O)C(C(=O)NCC(=O)NC1CC1)c1nc2cc(-c3ccc(N4CCCC4)nc3)ccc2s1 (stereo not drawn) [Example 71, N-[(cyclopropyl-carbamoyl)methyl]-2-(2-methoxyethane-sulfonyl)-2-{5-[6-(pyaolidin-1-yl)pyridin-3-yl]-1,3-benzothiazol-2-yl} acetamide] | 25 |
| COCCS(=O)(=O)C(C(=O)NCC(=O)NC1CC1)c1nc2cc(-c3ccncc3F)ccc2s1 (stereo not drawn) [Example 73, N-[(cyclopropyl-carbamoyl)methyl]-2-[5-(3-fluoropyridin-4-yl)-1,3-benzothiazol-2-yl]-2-(2-methoxyethane-sulfonyl) acetamide] | 28 |
| COCCS(=O)(=O)C(C(=O)NCC(=O)NC1CC1)c1nc2cc(-c3cncc(F)c3)ccc2s1 (stereo not drawn) [Example 75, N-[(cyclopropyl-carbamoyl)methyl]-2-[5-(5-fluoropyridin-3-yl)-1,3-benzothiazol-2-yl]-2-(2-methoxyethane-sulfonyl) acetamide] | 31 |
| COCCS(=O)(=O)C(C(=O)NCC(=O)NC1CC1)c1nc2cc(-c3ccncc3Cl)ccc2s1 (stereo not drawn) [Example 80, 2-[5-(3-chloropyridin-4-yl)-1,3-benzothiazol-2-yl]-N-[(cyclopropyl-carbamoyl)methyl]-2-(2-methoxyethane-sulfonyl) acetamide] | 49 |

The remaining lines, values ahead:

| IC50 [nM] | SMILES |
| --- | --- |
| 12 | COCCS(=O)(=O)C(C(=O)NCC(=O)NC1CC1)c1nc2cc(-c3ccc(C(F)(F)F)nc3)ccc2s1 (stereo not drawn) [Example 66] |
| 23 | CCOc1ccc(-c2ccc3sc(C(C(=O)NCC(=O)NC4CC4)S(=O)(=O)CCOC)nc3c2)cn1 (stereo not drawn) [Example 69, N-[(cyclopropyl-carbamoyl)methyl]-2-[5-(6-ethoxypyridin-3-yl)-1,3-benzothiazol-2-yl]-2-(2-methoxyethane-sulfonyl) acetamide] |
| 24 | COCCS(=O)(=O)C(C(=O)NCC(=O)NC1CC1)c1nc2cc(-c3ccnc(C)c3)ccc2s1 (stereo not drawn) [Example 70, N-[(cyclopropyl-carbamoyl)methyl]-2-(2-methoxyethane-sulfonyl)-2-[5-(2-methylpyridin-4-yl)-1,3-benzothiazol-2-yl]acetamide] |
| 25 | COCCS(=O)(=O)C(C(=O)NCC(=O)NC1CC1)c1nc2cc(-c3ccc(Cl)nc3)ccc2s1 (stereo not drawn) [Example 72, 2-[5-(6-chloropyridin-3-yl)-1,3-benzothiazol-2-yl]-N-[(cyclopropyl-carbamoyl)methyl]-2-(2-methoxyethane-sulfonyl) acetamide] |
| 31 | COCCS(=O)(=O)C(C(=O)NCC(=O)NC1CC1)c1nc2cc(-c3ccnc(OC)c3)ccc2s1 (stereo not drawn) [Example 74, N-[(cyclopropyl-carbamoyl)methyl]-2-(2-methoxyethane-sulfonyl)-2-[5-(2-methoxypyridin-4-yl)-1,3-benzothiazol-2-yl]acetamide] |
| 32 | COCCS(=O)(=O)C(C(=O)NCC(=O)NC1CC1)c1nc2cc(-c3ccnc(F)c3)ccc2s1 (stereo not drawn) [Example 76, N-[(cyclopropyl-carbamoyl)methyl]-2-[5-(2-fluoropyridin-4-yl)-1,3-benzothiazol-2-yl]-2-(2-methoxyethane-sulfonyl)acetamide] |
| 38 | COCCS(=O)(=O)C(C(=O)NCC(=O)NC1CC1)c1nc2cc(-c3cnc(F)c(C)c3)ccc2s1 (stereo not drawn) [Example 78, N-[(cyclopropyl-carbamoyl)methyl]-2-[5-(6-fluoro-5-methylpyridin-3-yl)-1,3-benzothiazol-2-yl]-2-(2-methoxyethane-sulfonyl) acetamide] |
| 40 | COCCS(=O)(=O)C(C(=O)NCC(=O)NC1CC1)c1nc2cc(-c3ccncc3)ccc2s1 (stereo not drawn) [Example 79, N-[(cyclopropyl-carbamoyl)methyl]-2-(2-methoxyethane-sulfonyl)-2-[5-(pyridin-4-yl)-1,3-benzothiazol-2-yl]acetamide] |

same assay, conditions: EL from conditioned media of HT-1080 cells; 30 min preincubation at 37° C.

| IC50 [nM] | SMILES |
| --- | --- |
| 26 | O=C(CNC(=O)C(c1nc2ccc(-c3ccc(F)nc3)cc2s1)S(=O)(=O)Cc1ccccc1)NC1CC1 (stereo not drawn) [Example 55, N-[(Cyclopropylcarbamoyl)methyl]-2-[6-(6-fluoropyridin-3-yl)-1,3-benzothiazol-2-yl]-2-phenylmethanesulfonylacetamide] |
| 3 | COCCS(=O)(=O)C(C(=O)NCC(=O)NC1CC1)c1nc2ccc(-c3ccc(N(C)C(=O)OC(C)(C)C)cc3)cc2s1 (stereo not drawn) [Example 60, tert-Butyl N-{4-[2-({[(cyclopropylcarbamoyl)methyl]carbamoyl}(2-methoxyethanesulfonyl)methyl)-1,3-benzothiazol-6-yl]phenyl}-N-methylcarbamate] |
